Measurements as given in the supplement of paper PMC11208160.

experiment: recombinant barcode read abundance after kanamycin selection (control-corrected) (log10(CPM+1)); higher = more efficient recombination; sequences stand for … in AGTGCAGAGAAAATCGGCCAGTTTTCTCTGCCTGCAGTCCGCATGCCGT…AGATTTATGCAGCGGACTGCCTTTCTCCCAAAGTGATAAACCGGACAGTATCATGGACCGGTTTTCCCGGTAATCCGTATTTGCAAGGTTGGTTTCACT; site = the 11-nt target
Outline: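 Targets were screened in pooled form in E. coli against IS621 bridge RNA target-binding loops. Recombination efficiency is based on barcode counts at recombinant junctions in counts per million, averaged and corrected for the control. Numbers are shown as log10(CPM+1), with duplicate plates on chloramphenicol/ampicillin LB agar (control) or chloramphenicol/ampicillin/kanamycin with 0.1 mM IPTG.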
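Further: IS621 recombinase and bridge RNA in Escherichia coli cells.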

Sequence	recombinant barcode read abundance (log10)
GACGGACCTTGGGTTCTAACCTGTTGCAT (site TGAAAGACTCG)	0.114
GACGGACCTTGGGTTCTAACCTGTTGCTT (site GACGGACCTAA)	0.832
GACGGACCTTGGGTTCTAACCTGTTGCTT (site GATGGCCCTAA)	0.191
GACGGAGCTTGGGTTCTAACCTGTTGCTG (site GACGGAGCTCA)	1.89
GACGGAGCTTGGGTTCTAACCTGTTGCTG (site GACGGGGCTCT)	0.224
GACGGATCTTGGGTTCTAACCTGTTGCTT (site GACGGATCTAA)	0.557
GACGGATCTTGGGTTCTAACCTGTTGCTT (site GACGGATCTAC)	0.162
GACGGATCTTGGGTTCTAACCTGTTGCTT (site GACGGATCTAG)	0.197
GACGGATCTTGGGTTCTAACCTGTTGCTT (site GACGGATCTAT)	0.15
GACTCTCCTTGGGTTCTAACCTGTTGCCT (site GACTCTCCTAA)	0.21
GACTCTCCTTGGGTTCTAACCTGTTGCCT (site GACTCTCCTAC)	0.0378
GACTCTCCTTGGGTTCTAACCTGTTGCCT (site GACTCTCCTAG)	0.0776
GACTCTCCTTGGGTTCTAACCTGTTGCCT (site GACTCTCCTAT)	0.191
GACTGGCCTTGGGTTCTAACCTGTTGCAG (site ATGGACACTAC)	0.0143
GACTGGCCTTGGGTTCTAACCTGTTGCAG (site GACTGGCCTCT)	0.862
GACTTAACTTGGGTTCTAACCTGTTGCTT (site CCTAAGTCTTG)	0.0154
GACTTAACTTGGGTTCTAACCTGTTGCTT (site GACTTAACTAA)	0.48
GAGAATACTTGGGTTCTAACCTGTTGCGT (site AAGAATACTAG)	0.0615
GAGAATACTTGGGTTCTAACCTGTTGCGT (site GAGAATACTAC)	2.41
GAGAATCCTTGGGTTCTAACCTGTTGCGT (site GAGAATCCTAC)	2.49
GAGAATCCTTGGGTTCTAACCTGTTGCGT (site GAGTACCCTAC)	0.0692
GAGACAACTTGGGTTCTAACCTGTTGCCT (site GAGACAACTAG)	0.173
GAGACAACTTGGGTTCTAACCTGTTGCCT (site GGGACAGCTAG)	0.303
GAGACGACTTGGGTTCTAACCTGTTGCCG (site GAGACGACTCG)	1.61
GAGACGACTTGGGTTCTAACCTGTTGCCG (site GAGATGACTCC)	0.0966
GAGAGATCTTGGGTTCTAACCTGTTGCCT (site GAGAAATCTAG)	0.749

Sequence	recombinant barcode read abundance (log10)
GAGAGATCTTGGGTTCTAACCTGTTGCCT (site GAGACATCTAG)	0.157
GAGAGATCTTGGGTTCTAACCTGTTGCCT (site GAGAGATCTAG)	1.46
GAGAGATCTTGGGTTCTAACCTGTTGCCT (site GAGATATCTAG)	0.117
GAGAGCACTTGGGTTCTAACCTGTTGCCT (site AAGAGCACTAG)	0.256
GAGAGCACTTGGGTTCTAACCTGTTGCCT (site CAGAGCACTAG)	0.603
GAGAGCACTTGGGTTCTAACCTGTTGCCT (site GAGAGCACTAG)	1.4
GAGAGCACTTGGGTTCTAACCTGTTGCCT (site TAGAGCACTAG)	0.548
GAGAGGTCTTGGGTTCTAACCTGTTGCAT (site GAGAGGTCTAA)	0.552
GAGAGGTCTTGGGTTCTAACCTGTTGCAT (site GAGAGGTCTAC)	0.435
GAGAGGTCTTGGGTTCTAACCTGTTGCAT (site GAGAGGTCTAG)	0.458
GAGAGGTCTTGGGTTCTAACCTGTTGCAT (site GAGAGGTCTAT)	1.82
GAGAGGTCTTGGGTTCTAACCTGTTGCTT (site GAGAGGTCTAA)	1.79
GAGAGGTCTTGGGTTCTAACCTGTTGCTT (site GAGAGGTCTAC)	0.202
GAGAGGTCTTGGGTTCTAACCTGTTGCTT (site GAGAGGTCTAG)	0.893
GAGAGGTCTTGGGTTCTAACCTGTTGCTT (site GAGAGGTCTAT)	1.46
GAGCAACCTTGGGTTCTAACCTGTTGCTT (site ATAAGCTCTCG)	0.25
GAGCAACCTTGGGTTCTAACCTGTTGCTT (site GAGCAACCTAA)	0.0979
GAGCAGGCTTGGGTTCTAACCTGTTGCTT (site AGTTCTCCTCG)	0.196
GAGCAGGCTTGGGTTCTAACCTGTTGCTT (site GAGCAGGCTAA)	0.661
GAGCCATCTTGGGTTCTAACCTGTTGCTT (site GAGCCATCTAA)	0.524
GAGCCATCTTGGGTTCTAACCTGTTGCTT (site GAGTCGTCTAA)	0.261
GAGCGCTCTTGGGTTCTAACCTGTTGCCG (site GAGCGCTCTCG)	0.754
GAGCGCTCTTGGGTTCTAACCTGTTGCCG (site GAGCGTTCTAG)	0.269
GAGGACTCTTGGGTTCTAACCTGTTGCCA (site GAGGACTCTAG)	1.46
GAGGACTCTTGGGTTCTAACCTGTTGCCA (site GAGGACTCTCG)	0.263
GAGGACTCTTGGGTTCTAACCTGTTGCCA (site GAGGACTCTGG)	0.824

Sequence	recombinant barcode read abundance (log10)
GAGGACTCTTGGGTTCTAACCTGTTGCCA (site GAGGACTCTTG)	2.27
GAGGCTTCTTGGGTTCTAACCTGTTGCCT (site GAGGCTTCTAG)	0.42
GAGGCTTCTTGGGTTCTAACCTGTTGCCT (site GCGGCTTCTAG)	0.435
GAGGCTTCTTGGGTTCTAACCTGTTGCCT (site GGGGCTTCTAG)	0.184
GAGGCTTCTTGGGTTCTAACCTGTTGCCT (site GTGGCTTCTAG)	0.515
GAGGGAGCTTGGGTTCTAACCTGTTGCAT (site GAGAGAGCTAT)	1.33
GAGGGAGCTTGGGTTCTAACCTGTTGCAT (site GAGCGAGCTAT)	0.171
GAGGGAGCTTGGGTTCTAACCTGTTGCAT (site GAGGGAGCTAT)	2.43
GAGGGAGCTTGGGTTCTAACCTGTTGCAT (site GAGTGAGCTAT)	0.315
GAGGGGACTTGGGTTCTAACCTGTTGCAG (site GAGGGGACTCT)	2.76
GAGGGGACTTGGGTTCTAACCTGTTGCAG (site TCCTTCTCTAG)	0.307
GAGGTATCTTGGGTTCTAACCTGTTGCGT (site GAGGTATCTAC)	0.252
GAGGTATCTTGGGTTCTAACCTGTTGCGT (site GAGGTATCTTG)	0.303
GAGGTATCTTGGGTTCTAACCTGTTGCTT (site GAGGTATCTAA)	0.35
GAGGTATCTTGGGTTCTAACCTGTTGCTT (site GAGGTATCTTA)	0.0893
GAGGTCACTTGGGTTCTAACCTGTTGCTA (site GAGGTCACTTA)	2.26
GAGGTCACTTGGGTTCTAACCTGTTGCTA (site TCTCCTCCTAT)	0.186
GAGGTCCCTTGGGTTCTAACCTGTTGCGG (site CTCCCTGCTAG)	0.2
GAGGTCCCTTGGGTTCTAACCTGTTGCGG (site GAGGTCCCTCC)	2.93
GAGTACACTTGGGTTCTAACCTGTTGCGC (site AGCGCGCCTCA)	0.0967
GAGTACACTTGGGTTCTAACCTGTTGCGC (site GAGTACACTGC)	2.53
GAGTACCCTTGGGTTCTAACCTGTTGCCT (site GAGTACCCTAG)	1.96
GAGTACCCTTGGGTTCTAACCTGTTGCCT (site GCGTACCCTAG)	0.162
GAGTACCCTTGGGTTCTAACCTGTTGCCT (site GGGTACCCTAG)	0.619
GAGTACCCTTGGGTTCTAACCTGTTGCCT (site GTGTACCCTAG)	0.0322
